Measurements taken from ChEMBL document CHEMBL5360540, “Antitumor effect of 3-(quinolin-2-ylmethylene)-4,6-dimethyl-5-hydroxy-7-azaoxindole down-regulating the Gas6-Axl axis” (Eur J Med Chem, 2023).
Calls of active or inactive are those of the source. The calls are words filed in the database; no cut-off is given here.

How the values were obtained:
PANC-1 [1] = assay: Cytotoxicity against human PANC-1 cells assessed as inhibition of cell growth at 30 uM incubated for 48 hrs by MTT assay relative to control; type: functional
MCF7 [2] = assay: Cytotoxicity against human MCF7 cells assessed as inhibition of cell growth at 30 uM incubated for 48 hrs by MTT assay relative to control; type: functional
PANC-1 [3] = assay: Antitumor activity against human PANC-1 cells xenografted in BALB/c nude mouse assessed as animal survival rate at 50 mg/kg, ip administered 3 times a week and measured for 100 days; type: functional; settings: PANC-1, 2400 h, time 100 day
PANC-1 [4] = assay: Antitumor activity against human PANC-1 cells xenografted in BALB/c nude mouse assessed as reduction in tumor growth at 50 mg/kg, ip administered 3 times a week and measured on 30 days by caliper analysis; type: functional, organism-based; settings: time 30.0 day
DU-145 = assay: Cytotoxicity against human DU-145 cells assessed as inhibition of cell growth incubated for 48 hrs by MTT assay; type: functional, cell-based; settings: DU-145, 48 h
A549 = assay: Cytotoxicity against human A549 cells assessed as inhibition of cell growth incubated for 48 hrs by MTT assay; type: functional, cell-based; settings: A549, 48 h
[5] = Cytotoxicity against HEK293 cells assessed as inhibition of cell growth incubated for 48 hrs by MTT assay; type: toxicity, cell-based; settings: human
[6] = Cytotoxicity against CHO-K1 cells assessed as inhibition of cell growth incubated for 48 hrs by MTT assay; type: toxicity, cell-based, Cricetulus griseus; settings: Chinese hamster
MCF7 [7] = assay: Cytotoxicity against human MCF7 cells assessed as inhibition of cell growth incubated for 48 hrs by MTT assay; type: functional, cell-based; settings: MCF7, 48 h
U-937 = assay: Cytotoxicity against human U-937 cells assessed as inhibition of cell growth incubated for 48 hrs by MTT assay; type: functional, cell-based; settings: U-937, 48 h
PANC-1 [8] = assay: Cytotoxicity against human PANC-1 cells assessed as inhibition of cell growth incubated for 48 hrs by MTT assay; type: functional, cell-based; settings: PANC-1, 48 h
MDA-MB-231 = assay: Cytotoxicity against human MDA-MB-231 cells assessed as inhibition of cell growth incubated for 48 hrs by MTT assay; type: functional, cell-based; settings: MDA-MB-231, 48 h
HT-29 = assay: Cytotoxicity against human HT-29 cells assessed as inhibition of cell growth incubated for 48 hrs by MTT assay; type: functional, cell-based; settings: HT-29, 48 h

Cc1nc2c(c(C)c1O)/C(=C/c1ncc[nH]1)C(=O)N2
inhibition at 30 µM (PANC-1 [1]): 7.2% | inhibition at 30 µM (MCF7 [2]): 2.6%

Cc1nc2c(c(C)c1O)/C(=C/c1ccco1)C(=O)N2
inhibition at 30 µM (PANC-1 [1]): 16.4% | inhibition at 30 µM (MCF7 [2]): 31.5%

Cc1nc2c(c(C)c1O)/C(=C/C1CCCCC1)C(=O)N2
inhibition at 30 µM (PANC-1 [1]): 49.1% | inhibition at 30 µM (MCF7 [2]): 10%

Cc1cc(C)c(/C=C2\C(=O)Nc3nc(C)c(O)c(C)c32)[nH]1
inhibition at 30 µM (PANC-1 [1]): 44.8% | inhibition at 30 µM (MCF7 [2]): 47.3%

Nc1ccn([C@@H]2O[C@H](CO)[C@@H](O)C2(F)F)c(=O)n1 [GEMCITABINE]
survival at 50 mg/kg (PANC-1 [3]): 80% | Activity (PANC-1 [4]): inactive

Cc1nc2c(c(C)c1O)/C(=C/c1ccccc1[N+](=O)[O-])C(=O)N2
inhibition at 30 µM (PANC-1 [1]): 27.9% | inhibition at 30 µM (MCF7 [2]): 23.9%

Cc1nc2c(c(C)c1O)/C(=C/c1ccccc1O)C(=O)N2
inhibition at 30 µM (PANC-1 [1]): 42.1% | inhibition at 30 µM (MCF7 [2]): 29.2%

Cc1ccc(/C=C2\C(=O)Nc3nc(C)c(O)c(C)c32)s1
inhibition at 30 µM (PANC-1 [1]): 30.2% | inhibition at 30 µM (MCF7 [2]): 53.4%

Cc1nc2c(c(C)c1O)/C(=C/c1ccncc1)C(=O)N2
IC50 (DU-145): 30.8 µM | IC50 (A549): 30.1 µM | inhibition at 30 µM (PANC-1 [1]): 65.5% | IC50 at 48 h [5]: > 90 µM | IC50 at 48 h [6]: 57 µM | IC50 (MCF7 [7]): 19.1 µM | IC50 (U-937): 34.5 µM | IC50 (PANC-1 [8]): 19.1 µM | IC50 (MDA-MB-231): > 90 µM | inhibition at 30 µM (MCF7 [2]): 63.2% | IC50 (HT-29): 30.1 µM

Cc1nc2c(c(C)c1O)/C(=C/c1ccc[nH]1)C(=O)N2
inhibition at 30 µM (PANC-1 [1]): 16.9% | inhibition at 30 µM (MCF7 [2]): 27%

Cc1ccc(/C=C2\C(=O)Nc3nc(C)c(O)c(C)c32)cc1
inhibition at 30 µM (PANC-1 [1]): 29.2% | inhibition at 30 µM (MCF7 [2]): 32.3%

COc1cc(/C=C2\C(=O)Nc3nc(C)c(O)c(C)c32)cc(OC)c1OC
inhibition at 30 µM (PANC-1 [1]): 40.7% | inhibition at 30 µM (MCF7 [2]): 41.2%

COc1ccc(Br)cc1/C=C1\C(=O)Nc2nc(C)c(O)c(C)c21
IC50 (DU-145): 4.6 µM | IC50 (A549): 10.1 µM | inhibition at 30 µM (PANC-1 [1]): 71.8% | IC50 at 48 h [5]: 19.5 µM | IC50 at 48 h [6]: 30.1 µM | IC50 (MCF7 [7]): 11 µM | IC50 (U-937): 12.6 µM | IC50 (PANC-1 [8]): 6.4 µM | IC50 (MDA-MB-231): 10.5 µM | inhibition at 30 µM (MCF7 [2]): 74.7% | IC50 (HT-29): 25.1 µM

COc1ccc(OC)c(/C=C2\C(=O)Nc3nc(C)c(O)c(C)c32)c1
IC50 (DU-145): 5.6 µM | IC50 (A549): 47.5 µM | inhibition at 30 µM (PANC-1 [1]): 69.3% | IC50 at 48 h [5]: 11 µM | IC50 at 48 h [6]: 47.5 µM | IC50 (MCF7 [7]): 20.9 µM | IC50 (U-937): 33 µM | IC50 (PANC-1 [8]): 19.5 µM | IC50 (MDA-MB-231): 22.9 µM | inhibition at 30 µM (MCF7 [2]): 67.5% | IC50 (HT-29): 16.6 µM

Cc1nc2c(c(C)c1O)/C(=C/c1nccs1)C(=O)N2
inhibition at 30 µM (PANC-1 [1]): 9% | inhibition at 30 µM (MCF7 [2]): 5.6%

Cc1nc2c(c(C)c1O)/C(=C/c1ccc(Cl)cc1)C(=O)N2
inhibition at 30 µM (PANC-1 [1]): 45% | inhibition at 30 µM (MCF7 [2]): 51.7%

Cc1nc2c(c(C)c1O)/C(=C/c1cccc3[nH]ccc13)C(=O)N2
inhibition at 30 µM (PANC-1 [1]): 32.3% | inhibition at 30 µM (MCF7 [2]): 14.5%
